Tests used:
[1] = target: T1, uPA (Homo sapiens, UniProt P00749); test: fluorometric enzyme inhibition assay, uPA (Z-Gly-Gly-Arg-AMC); assay type: biochemical; details: for Ki: from IC50 by Cheng-Prusoff, n.a. = not active, <80% inhibition at 20 µM
T1 construct: purchased Sigma Aldrich
Method: (§1) The inhibitory activity of the synthesized compounds towards the respective main- and off-target proteases was measured via fluorometric and colorimetric assays. Thus, fluorogenic AMC- or colorimetric pNA-based substrates with a peptide sequence suitable for the tested protease were utilized (see Supplementary Figure S2). At first, the compounds were screened against […] proteases (uPA, TMPRSS2, matriptase, tPA, thrombin, factor Xa) at 20 µM, and a cut-off value of 80% inhibition at this concentration was set, for the differentiation between nonactive (n.a.) and active inhibitors. Due to the reversible inhibition mechanism of the ketobenzothiazole derivates, the IC50 values were determined with Graphpad Prism 9, and afterwards converted to the corresponding Ki values for an adequate comparison between the inhibitory activities of the compounds toward all tested proteases. The Ki values were calculated using the Cheng–Prusoff equation [43].
(§2) Fluorometric inhibition assays
(§3) The inhibitory activities of the compounds against the proteases were determined by enzyme inhibition assays with fluorogenic or colorimetry-based substrates. The fluorescence, caused by cleaved AMC from the fluorogenic substrates (uPA, matriptase, TMPRSS2, thrombin), was measured in white flat-bottom 96-well plates from Greiner Bio-One using a Tecan Infinite F200 Pro plate reader. The absorption, caused by cleaved pNA from colorimetric substrates (factor Xa and tPA), was measured in transparent flat-bottom 96-well plates from Greiner Bio-One using a Tecan Spark 10M plate reader. All measurements with the main-target proteases (uPA and TMRPSS2) were performed as triplicates and with the off-target proteases (matriptase, factor Xa, tPA, thrombin) as duplicates. The substrates and the compounds were prepared as stock solutions in DMSO. Each well contained a total volume of 200 µL, consisting of 185 µL buffer, 5 µL inhibitor in DMSO or pure DMSO as negative control, 5 µL substrate in DMSO and 5 µL enzyme solution in buffer. Dilution series were prepared for the determination of the inhibition constants. The fluorescence signal and absorbance were measured every 30 s for 10 min at 25 or 37 °C with the corresponding excitation/emission (λex = 380 nm / λem = 460 nm) and absorbance (λabs = 405 nm) wavelengths, depending on the targeted protease. IC50 values for the reversible inhibitors were calculated with Graphpad Prism 9 by fitting the remaining enzymatic activity to the four parameter IC50 equation with Y [%] as the residual enzyme activity , Ymax as the maximum value of the dose response curve at inhibitor concentrations [I] = 0 µM, Ymin as the minimum value at high inhibitor concentrations and s as the hill coefficient.[1] The fluorescence progress curves and sigmoidal dose-response curve for inhibition of uPa by compound 38 is shown exemplary in Figure S2.
Figure S2: (left) Fluorescence progress curves for inhibition of uPa by cpd. 38. (right) Plot showing the respective IC50 value […]
(§4) Due to the dependence of the IC50 value on the substrate affinity and concentration, the Ki values were calculated with the Cheng-Prusoff equation, using the final substrate concentration [S] and the Michaelis-Menten constant KM, (2) for appropriate comparison of the inhibitory activities to the other enzymes and inhibitors.[1]
(§5) KM values were determined by fitting to the Michaelis-Menten equation using Graphpad Prism 9 with v [ΔF/min] as the substrate hydrolysis rate, vmax as the maximum slope of the dose-response curve, and the substrate [S] concentration.[1] The different substrates were serially diluted in DMSO. The measurement was done in analogy to the determination of the inhibitory activity, but with 5 µL pure DMSO instead of inhibitor solution. The fluorescence progress curves and Michaelis-Menten curve of the specific substrate of uPA is shown exemplarily […]
Figure S3: (left) Fluorescence progress curves of cleavage of Z-Gly-Gly-Arg-AMC by uPA. (right) Michaelis-Menten curve […]

[2] = target: T2, matriptase (Homo sapiens, UniProt Q9Y5Y6); test: fluorometric enzyme inhibition assay, matriptase (Boc-Leu-Arg-Arg-AMC); assay type: biochemical; details: for Ki: from IC50 by Cheng-Prusoff, n.a. = not active, <80% inhibition at 20 µM
T2 construct: catalytic domain of matriptase (uniport: Q9Y5Y6 aa 596–855); hexa-histidine (N); made in house; host or cells: Escherichia coli BL21 Gold (DE3)
T2 sequence (Q9Y5Y6 596-855): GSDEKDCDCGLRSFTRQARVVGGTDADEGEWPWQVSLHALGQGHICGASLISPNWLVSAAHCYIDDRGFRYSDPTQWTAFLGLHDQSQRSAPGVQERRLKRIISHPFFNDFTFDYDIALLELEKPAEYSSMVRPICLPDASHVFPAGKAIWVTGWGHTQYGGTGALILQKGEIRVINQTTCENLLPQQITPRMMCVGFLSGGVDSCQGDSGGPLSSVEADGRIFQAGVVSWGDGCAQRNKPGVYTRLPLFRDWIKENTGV
Method: as §1, §2
as §3, with “S2. […]” for “S2.”
as §4
as §5, with “solution.” for “solution. The fluorescence progress curves and Michaelis-Menten curve of the specific substrate of uPA is shown exemplarily”
The following buffers and substrates were used for the respective assays: uPA (50 mM Tris HCl pH = 7.9, 150 mM […]
TMPRSS2 (25 mM Tris HCl pH = 8.0, 150 mM NaCl, 5 mM CaCl2, 0.001% TX-100, 100 µM Boc-Gln-Ala-Arg-AMC (KM: 68.63 ± 6.64 µM), 25 °C, 3 nM TMPRSS2)[3]; matriptase (50 mM Tris HCl pH = 8.0, 150 mM NaCl, 5 mM CaCl2, […]

Selectivity index [SI] uPA ([1]; quotient Ki uPA / Ki TMPRSS2)	Selectivity index [SI] Matriptase ([2]; quotient Ki matriptase / Ki TMPRSS2)	Compound	Ki [1]	Ki [2]	Selectivity index [SI] Matriptase ([2]; quotient Ki matriptase / Ki uPA)
1052	289	CC(=O)N[C@@H](Cc1ccccc1)C(=O)N[C@@H](Cc1ccc(NC(=N)N)cc1)C(=O)c1nc2ccccc2s1 [Compound 33]	5.26 ± 0.922 µM	1.44 ± 0.09 µM	–
–	–	CC(=O)NCC(=O)NC(C(=O)NC(C)C(=O)NC(CC1CCC(NC(=N)N)CC1)C(=O)c1nc2ccccc2s1)C(C)O (stereo not shown) [Compound 38]	0.039 ± 0.005 µM	0.626 ± 0.074 µM	16

— PMC10855164, “Ligand-Based Design of Selective Peptidomimetic uPA and TMPRSS2 Inhibitors with Arg Bioisosteres” (International Journal of Molecular Sciences, 2024)
